Patent US20110038804A1, “MR IMAGING AGENT, IMAGING MEDIUM AND METHODS OF IMAGING WHEREIN SUCH AN IMAGING MEDIUM IS USED” (priority 2007, published 2011)

Tests used:
[1] = test system: subcutaneous mouse lymphoma (EL-4); type: in vivo
Method: EL-4 cells were injected into a C57Bl/6 mouse to generate a subcutaneous mouse lymphoma. 175 μl of an imaging medium comprising hyperpolarised sodium ^13C1-α-ketoisocaproate which was prepared as described in Example 2 was injected into the mouse over a time period of 6 s. The sodium ^13Ci-α-ketoisocaproate concentration in said imaging medium was about 50 mM. A 20 mm surface coil (tuned for carbon) was positioned over the subcutaneous tumour and signals of ^13C-α-ketoisocaproate and ^13C-leucine were detected by ^13C-MR spectroscopy which was carried out using a 2.4 T Bruker spectrometer to generate a metabolic profile of the tumour and the surrounding healthy tissue. A ^13C-chemical shift image was acquired with the following parameters: FOV 35×35 mm^2×10 mm, matrix size 16×16, 10 degree RF pulse, TR=35 ms. Total acquisition time was 11 seconds (die to triggering on breathing) and the chemical shift imaging started 15 seconds after the start of the injection of the imaging medium. Omniscan™ (GE Healthcare)—enhanced proton imaging was performed to confirm the tumour position and perfusion.

mouse liver = test: In vivo 13C-MR spectroscopy with surface coil over the liver in a mouse; set-up: species or system C57Bl/6 mouse; conditions: 175 μl of about 50 mM imaging medium injected over 6 s; liver region, 2.4 T, 10 spectra, repetition time 5 s
Method: 175 μl of an imaging medium comprising hyperpolarised sodium ^13C1-α-ketoisocaproate which was prepared as described in Example 1 was injected into a C57Bl/6 mouse over a time period of 6 s. The sodium ^13C1-α-ketoisocaproate concentration in said imaging medium was about 50 mM. A 12 mm surface coil (tuned for carbon) was positioned over the mouse to cover the liver region and signals of ^13C-α-ketoisocaproate and ^13C-leucine were detected by ^13C-MR spectroscopy which was carried out in a 2.4 T Bruker spectrometer to generate a metabolic profile. A total of 10 ^13C-spectra were acquired with a repetition time of 5 s and 30 degree RF pulses. In this Example, the ^13C-leucine signal is approximately 1% of the ^13C-α-ketoisocaproate signal.

[2] = Tolerability in the animal models used; type: in vivo; conditions: animal models of the Examples (mouse, rat)
Method: In another preferred embodiment, the imaging medium comprising hyperpolarised ^13C-α-ketoisocaproate is administered repeatedly, thus allowing dynamic studies.

[3] = 175 μl of about 50 mM imaging medium, chemical shift imaging started 15 s after start of injection, 2.4 T

CC(C)CC(=O)[13C](=O)[O-].[Na+] [sodium ^13C1-α-ketoisocaproate]
13C-leucine distribution [1, 3]: confined to the tumour area
13C-α-ketoisocaproate signal distribution [1, 3]: the highest in the large blood vessels
ratio image (13C-leucine to 13C-α-ketoisocaproate) ([1]; confirmed by Omniscan-enhanced proton image): defines the tumour area
13C-leucine signal as share of the 13C-α-ketoisocaproate signal (mouse liver): approximately 1%

^13C-α-ketoisocaproate [hyperpolarised ^13C-α-ketoisocaproate]
tolerability [2]: well tolerated
